Measurements taken from the NIST ThermoML archive (doi:10.1016/j.fluid.2007.04.030).

Experiment: xn = mol fraction of the nth substance listed
Conditions: 101 kPa, Liquid

COc1cc2c(cc1O)CC1c3c(cc(O)c(OC)c3-2)CCN1C (configuration not stated) [boldine] + CCO
mass density [kg/m3]
Conditions | x1 = 0.00151 | x1 = 0.0036 | x1 = 0.00737 | x1 = 0.01217 | x1 = 0.0177 | x1 = 0.02066 | x1 = 0.02425 | x1 = 0.02539
283.15 K | 801.79 | 806.58 | 815.68 | 826.69 | 838.83 | 845.25 | 852.81 | 855.28
288.15 K | 797.54 | 802.33 | 811.43 | 822.44 | 834.59 | 841.01 | 848.57 | 851.04
293.15 K | 793.27 | 798.06 | 807.16 | 818.18 | 830.32 | 836.74 | 844.3 | 846.79
298.15 K | 788.97 | 793.77 | 802.87 | 813.89 | 826.03 | 832.46 | 840.02 | 842.51
303.15 K | 784.65 | 789.45 | 798.55 | 809.57 | 821.71 | 828.14 | 835.71 | 838.2
308.15 K | 780.3 | 785.1 | 794.2 | 805.23 | 817.37 | 823.79 | 831.35 | 833.86
313.15 K | 775.91 | 780.71 | 789.81 | 800.84 | 813 | 819.42 | 826.97 | 829.49
318.15 K | 771.49 | 776.27 | 785.38 | 796.41 | 808.57 | 815 | 822.56 | 825.07
323.15 K | 767.01 | 771.79 | 780.9 | 791.93 | 804.1 | 810.54 | 818.09 | 820.6
328.15 K | 762.47 | 767.24 | 776.37 | 787.4 | 799.57 | 806.01 | 813.57 | 816.08
333.15 K | 757.86 | 762.64 | 771.76 | 782.8 | 794.98 | 801.42 | 808.99 | 811.5

COc1cc2c(cc1O)CC1c3c(cc(O)c(OC)c3-2)CCN1C (configuration not stated) [boldine] + CO
mass density [kg/m3]
Conditions | x1 = 0.00099 | x1 = 0.002 | x1 = 0.00302 | x1 = 0.00406 | x1 = 0.00513 | x1 = 0.00788 | x1 = 0.01077 | x1 = 0.01696 | x1 = 0.02389
283.15 K | 804.63 | 808.15 | 811.7 | 815.24 | 818.83 | 827.92 | 837.15 | 856.15 | 875.72
288.15 K | 799.96 | 803.48 | 807.04 | 810.59 | 814.19 | 823.28 | 832.53 | 851.55 | 871.15
293.15 K | 795.27 | 798.79 | 802.35 | 805.91 | 809.51 | 818.62 | 827.88 | 846.93 | 866.56
298.15 K | 790.57 | 794.1 | 797.66 | 801.22 | 804.83 | 813.95 | 823.21 | 842.29 | 861.96
303.15 K | 785.86 | 789.39 | 792.96 | 796.52 | 800.14 | 809.27 | 818.54 | 837.63 | 857.34
308.15 K | 781.12 | 784.66 | 788.23 | 791.8 | 795.42 | 804.56 | 813.85 | 832.96 | 852.69
313.15 K | 776.35 | 779.89 | 783.47 | 787.05 | 790.67 | 799.82 | 809.13 | 828.27 | 848.03
318.15 K | 771.55 | 775.1 | 778.68 | 782.26 | 785.89 | 795.05 | 804.37 | 823.55 | 843.34
323.15 K | 766.71 | 770.26 | 773.84 | 777.43 | 781.07 | 790.25 | 799.58 | 818.78 | 838.61
328.15 K | 761.83 | 765.38 | 768.97 | 772.57 | 776.2 | 785.4 | 794.75 | 813.97 | 833.84
333.15 K | 756.89 | 760.45 | 764.05 | 767.65 | 771.29 | 780.5 | 789.86 | 809.11 | 829.02
